Consider 103 molecules from ChEMBL document CHEMBL3507680, “University of Dundee, Gates Library screen for HepG2 cell viability”.

The data set can be described thus: Human HepG2 cell viability assay in 384 well format. It is filed as toxicity, cell-based. More on the design: dose 125 nL, time 70.5 hour; concentration not given beside the values. To be noted: HepG2 cells, read-out: Inhibition.
With `c1ccc(CO[C@H]2C[C@@H]3CN(Cc4cncnc4)C[C@@H]3C2)cc1`, the cytotoxicity at 70.5 h is -5.58%.

On to `Cc1cc(C(N)=O)nc(C2(C)CCCN2Cc2cnn(C)c2)n1` (stereo not drawn), for which the cytotoxicity at 70.5 h is -4.52%.

`Cc1nc(CN2CCCC(c3nc(C)n4c(C)c(C)sc34)C2)co1` (stereo not drawn): the cytotoxicity at 70.5 h came out at 21%.

Turning to `COCCc1ncc(CNC2(c3ccc(Cl)cc3Cl)CC2)cn1`, the cytotoxicity at 70.5 h was -1.55%.

As for `Cc1nc(C)c(C(=O)N2CCCC(c3cnccn3)C2)s1` (stereo not drawn), the cytotoxicity at 70.5 h is -2.44%.

As for `CC(C)CC(=O)N1CCC(c2nnc3n2CCCCC3)CC1`, the cytotoxicity at 70.5 h is -0.981%.

Turning to `Cc1ccc(CN(C)C(=O)NCC(C)(C)S(C)(=O)=O)s1`, the cytotoxicity at 70.5 h was -2.7%.

`CC(C)c1ncc2c(n1)CN(CC1CCCCO1)CC2` (stereo not drawn): the cytotoxicity at 70.5 h is -2.55%.

Take `Cc1cccc(C(=O)N(CCCO)S(=O)(=O)c2cccs2)c1`: the cytotoxicity at 70.5 h is -0.969%.

As for `CCC1CCCCN1S(=O)(=O)c1c(C)noc1C` (stereo not drawn), the cytotoxicity at 70.5 h was -7.69%.

Take `Cc1ccnc(NC(=O)C2CCCO2)c1` (stereo not drawn): the cytotoxicity at 70.5 h worked out at 6.19%.

On to `CCNC(=O)CN(CC)C(=O)c1cccc(Nc2cnn(C)c2)c1`, for which the cytotoxicity at 70.5 h worked out at 6.01%.

On to `COC1CCN(C(=O)c2ccc3ncsc3c2)CC1`, for which the cytotoxicity at 70.5 h was -2.33%.

With `CCn1cnnc1CNC(=O)NC(c1ccc(OC)cc1)C1CC1` (stereo not drawn), the cytotoxicity at 70.5 h is -6.45%.

As for `CCC(NC(=O)NCc1nncn1CC)c1ccc(OC)cc1` (stereo not drawn), the cytotoxicity at 70.5 h is -9.27%.

`O=c1cc(CN(CCO)C2CC2)nc2ccc(Br)cn12`: the cytotoxicity at 70.5 h is -4.99%.

Consider `CN(CCO)Cc1cc(=O)n2cc(Br)ccc2n1`, for which the cytotoxicity at 70.5 h is -1.02%.

Consider `CCN(Cc1cc(=O)n2cc(Br)ccc2n1)C1CC1`, for which the cytotoxicity at 70.5 h was -7.36%.

Consider `O=C(Cc1cccs1)NCCNc1nccc(C(F)(F)F)n1`, for which the cytotoxicity at 70.5 h is -3.67%.

As for `CCCS(=O)(=O)N1CCCC(c2nc(-c3ccccc3)c[nH]2)C1` (stereo not drawn), the cytotoxicity at 70.5 h was -2.79%.

Turning to `CC(C)(C)C(=O)NCCC(=O)Nc1cc(C#N)cn1C(C)(C)C`, the cytotoxicity at 70.5 h is -4.11%.

Turning to `O=C(O)c1ccc(-c2cscn2)cc1`, the cytotoxicity at 70.5 h is -6.68%.

Regarding `CC(C)COc1cncc(NCc2nnc3ccccn23)n1`, the cytotoxicity at 70.5 h is -3.83%.

Consider `CC(C)(C)n1cc(C#N)cc1NC(=O)CCS(=O)(=O)C1CCCC1`, for which the cytotoxicity at 70.5 h is 0.563%.

In the case of `CCSCc1ccnc(NC(=O)C2CCOC2)c1` (stereo not drawn), the cytotoxicity at 70.5 h was -4%.

As for `COc1ccncc1NCc1ccsc1`, the cytotoxicity at 70.5 h was -2.45%.

For the molecule `CC(Cc1cccc(Cl)c1)NC(=O)NCc1ncnn1C` (stereo not drawn), the cytotoxicity at 70.5 h was found to be 11.1%.

For `CN(C)C(=O)CCC[S+]([O-])Cc1cc(Cl)ccc1Cl` (stereo not drawn), the cytotoxicity at 70.5 h was -3.61%.

Regarding `CN(C)C(=O)CCC[S+]([O-])Cc1ccc(Cl)c(Cl)c1` (stereo not drawn), the cytotoxicity at 70.5 h is -3.04%.

As for `CN(C)C(=O)CCC[S+]([O-])Cc1ccc(F)c(F)c1` (stereo not drawn), the cytotoxicity at 70.5 h amounted to 13.1%.

For the molecule `COc1cc(CNc2nc(C(F)(F)F)no2)cc(OC)c1OC`, the cytotoxicity at 70.5 h was -4.05%.

As for `O=S(=O)(c1ccc(Cl)s1)N1CCCC(c2ncc[nH]2)C1` (stereo not drawn), the cytotoxicity at 70.5 h was -1.59%.

In the case of `CCc1ccc(S(=O)(=O)N2CCCC(c3ncc[nH]3)C2)s1` (stereo not drawn), the cytotoxicity at 70.5 h was -4.54%.

In the case of `COc1cc(CO)ccc1OCc1nc(C(C)C)no1`, the cytotoxicity at 70.5 h was -3.56%.

As for `CCSCc1ccnc(NC(=O)C2CCCO2)c1` (stereo not drawn), the cytotoxicity at 70.5 h is -2.71%.

Regarding `COC(=O)NCC(=O)N1CCCC1c1nc(-c2ccccc2F)c[nH]1` (stereo not drawn), the cytotoxicity at 70.5 h was -3.18%.

Regarding `Cc1ccccc1C(C)NC(=O)CN1CCN(Cc2ccc(Br)s2)CC1` (stereo not drawn), the cytotoxicity at 70.5 h is 18.7%.

As to `NC(=O)CS(=O)(=O)Cc1ccc(F)cc1`, the cytotoxicity at 70.5 h is -1.66%.

For the molecule `O=C(CCC1CCCC1)NCc1nnc2ccccn12`, the cytotoxicity at 70.5 h was -10.1%.

On to `O=C1CC(N(C(=O)Cc2csc(-c3ccccc3)n2)C2CC2)C(=O)N1` (stereo not drawn), for which the cytotoxicity at 70.5 h is -1.89%.

For the molecule `COC(=O)c1cccc(S(=O)(=O)Nc2ncc(C)s2)c1`, the cytotoxicity at 70.5 h came to 0.827%.

For the molecule `N#CCCN(CCC#N)C(=O)COC1CCCCC1`, the cytotoxicity at 70.5 h was -6.88%.

Regarding `Cc1nc2cc(=O)[nH]n2c(C)c1CNC(=O)C(C)(C)c1ccccc1`, the cytotoxicity at 70.5 h was -1.88%.

In the case of `Cc1ccc(CC(=O)NCC(O)c2ccc(Cl)cc2Cl)cn1` (stereo not drawn), the cytotoxicity at 70.5 h was found to be 3.42%.

`O=C(CCC1CCCC1)N1CCC(O)(C(F)(F)F)C1` (stereo not drawn): the cytotoxicity at 70.5 h is -0.869%.

On to `CSCC(C)C(=O)NCc1c(C)nc2cc(=O)[nH]n2c1C` (stereo not drawn), for which the cytotoxicity at 70.5 h was determined as 7.35%.

Turning to `CC(C)Cn1cnc(S(=O)(=O)Nc2cccnc2-n2cccn2)c1`, the cytotoxicity at 70.5 h is -1.98%.

As for `O=C(NC(c1ccc(Cl)cc1)C(F)(F)F)c1nc(=O)[nH][nH]1` (stereo not drawn), the cytotoxicity at 70.5 h is 29.9%.

As to `Cn1c(N)nnc1SC1CCCN(c2ccccc2)C1=O` (stereo not drawn), the cytotoxicity at 70.5 h was -1%.

`CCN(C(=O)Cc1ccc(NCc2ncc[nH]2)cc1)c1ccccc1`: the cytotoxicity at 70.5 h was -5.61%.

On to `O=C(NC(CC(F)(F)F)c1ccc(Cl)cc1)c1nc(=O)[nH][nH]1` (stereo not drawn), for which the cytotoxicity at 70.5 h is 0.759%.

Turning to `CCn1cc(S(=O)(=O)Nc2cccnc2-n2cccn2)nc1C`, the cytotoxicity at 70.5 h was -2.93%.

As for `COCC(O)CN1CCC(NC(=O)c2cccc(C)c2)CC1` (stereo not drawn), the cytotoxicity at 70.5 h is -2.52%.

As for `COc1cc(F)cc(CNC(=O)Nc2ccn(CC(F)F)n2)c1`, the cytotoxicity at 70.5 h is -2.34%.

For the molecule `CCOc1ccc(NC(=O)c2oc(CC)cc2C)cc1CO`, the cytotoxicity at 70.5 h was -3.11%.

As to `c1csc(-c2noc(CCCNC3CCc4ncnn4C3)n2)c1` (stereo not drawn), the cytotoxicity at 70.5 h is -4.28%.

On to `COC(=O)c1cccc(C(=O)N(C)Cc2cccc(F)c2)c1`, for which the cytotoxicity at 70.5 h turned out to be 5.14%.

As to `Cc1ncc(C(=O)NCCNc2ncccn2)s1`, the cytotoxicity at 70.5 h was -2.18%.

As to `Cc1cc(N(C)C)nc(N2CCCC2c2cc(C)on2)n1` (stereo not drawn), the cytotoxicity at 70.5 h was -1.73%.

As for `COc1cccc(SCCCn2cnc3c(N)ncnc32)c1`, the cytotoxicity at 70.5 h worked out at 6.56%.

Turning to `Cc1nc(CN2CCN(c3ccc(Cl)cn3)CC2)no1`, the cytotoxicity at 70.5 h was -6.61%.

On to `CN(C)CC1CCCCN1C(=O)c1ccc(N2CCOCC2)cc1` (stereo not drawn), for which the cytotoxicity at 70.5 h amounted to 0.118%.

As for `CCCN(Cc1cnn(C)c1)S(=O)(=O)c1cccc(F)c1C#N`, the cytotoxicity at 70.5 h was -2.96%.

As for `CCOc1cccc(NC(=O)c2cc[nH]n2)n1`, the cytotoxicity at 70.5 h is -3.18%.

Consider `CCOc1cccc(NC(=O)c2cnc(C)cn2)n1`, for which the cytotoxicity at 70.5 h is -3.9%.

On to `CNC(=O)CN1CCC(CN(C)Cc2ccncc2Cl)CC1`, for which the cytotoxicity at 70.5 h is -3.24%.

`Cc1ccc(S(N)(=O)=O)cc1C(=O)NC1CCN(C2CC2)CC1`: the cytotoxicity at 70.5 h was 21.9%.

Regarding `O=c1[nH]cnc2c1CCN(S(=O)(=O)c1cccc(OC(F)(F)F)c1)C2`, the cytotoxicity at 70.5 h is -5.76%.

For `CC(=O)c1cc(Br)cc(F)c1OCC(=O)NC1CC1`, the cytotoxicity at 70.5 h is 0.481%.

In the case of `CCC1CCCCCN1C(=O)c1ccc(N2CCC(O)CC2)cc1` (stereo not drawn), the cytotoxicity at 70.5 h was -1.83%.

Turning to `Cc1cc(C)nc(NC2CCC(=O)N(C)C2)n1` (stereo not drawn), the cytotoxicity at 70.5 h is -8.23%.

Regarding `COCc1cc(N(C)Cc2ncnn2C)nc(C(C)(C)C)n1`, the cytotoxicity at 70.5 h was -10.6%.

For the molecule `CC(C)(C)OC(=O)N1CCC(NC2CC2)CC1`, the cytotoxicity at 70.5 h was -7.1%.

Consider `Cc1noc(C)c1CN(C)Cc1csc(-c2ccccc2F)n1`, for which the cytotoxicity at 70.5 h was -3.72%.

Regarding `COCc1cc(N(C)Cc2cnccn2)nc(C(C)(C)C)n1`, the cytotoxicity at 70.5 h is -12.2%.

Regarding `COc1cccc(CNc2nc(N3CCOCC3)ns2)c1OC`, the cytotoxicity at 70.5 h worked out at 15.5%.

As to `O=C(NCC(=O)N1CCCC1Cc1cccc(F)c1)C1CCCC1` (stereo not drawn), the cytotoxicity at 70.5 h is -1.38%.

As to `Cc1cc(C)n(CCCNC(=O)NCc2c(C)cc(C)[nH]c2=O)n1`, the cytotoxicity at 70.5 h is 2.42%.

Take `COC(=O)CC(NC(=O)c1cc(OC)c2c(c1)OCCO2)c1cccs1` (stereo not drawn): the cytotoxicity at 70.5 h is -9.89%.

On to `N#Cc1ccc(S(=O)(=O)NC(=O)c2csc(-c3ccco3)n2)cc1`, for which the cytotoxicity at 70.5 h is -2.89%.

Regarding `Cc1cc(C)n(CC(C)CNC(=O)NCc2c(C)cc(C)[nH]c2=O)n1` (stereo not drawn), the cytotoxicity at 70.5 h was -10.1%.

In the case of `C=C(C)CN1CCC(NC(=O)Nc2ccc(F)c(C(N)=O)c2)CC1`, the cytotoxicity at 70.5 h is -6.42%.

Regarding `CNS(=O)(=O)c1ccc(CNC(=O)C2CN(C)CCO2)cc1` (stereo not drawn), the cytotoxicity at 70.5 h is -5.64%.

For the molecule `CNS(=O)(=O)c1ccc(CNC(=O)C2CCCN(C)C2)cc1` (stereo not drawn), the cytotoxicity at 70.5 h was -6.65%.

Turning to `CCOc1c(F)cccc1C(=O)N(c1cccnc1)C(C)C`, the cytotoxicity at 70.5 h is -3.95%.

As for `Cc1c(COC(C)C)cccc1NC(=O)N1CCC(N2CCCC2)C1` (stereo not drawn), the cytotoxicity at 70.5 h came out at 9%.

As for `CCc1n[nH]c(NC(=O)c2ccc(Cl)cn2)c1Br`, the cytotoxicity at 70.5 h is -2.17%.

Take `Cc1c(COC(C)C)cccc1NC(=O)N1CC[C@H](O)C1`: the cytotoxicity at 70.5 h is -6.27%.

With `CCCn1nc2c(cc1=O)CN(c1ncnc3ccsc13)CC2`, the cytotoxicity at 70.5 h is -13%.

For `Cc1c(COc2ccccc2)cccc1NC(=O)N1CC[C@H](O)C1`, the cytotoxicity at 70.5 h is -1.47%.

Regarding `O=C(Cc1ccon1)N1CCN(c2ccncc2Cl)CC1`, the cytotoxicity at 70.5 h is 5.48%.

Regarding `COc1ccc(CNc2nc(N3CCOCC3)ns2)cc1`, the cytotoxicity at 70.5 h is -10.7%.

Take `CCOc1c(F)cccc1C(=O)N(CC)C(C)c1ccncc1` (stereo not drawn): the cytotoxicity at 70.5 h is -4.06%.

Regarding `O=C(Cn1cc(C2CC2)nn1)N(Cc1ccco1)Cc1cccs1`, the cytotoxicity at 70.5 h is -2.55%.

On to `O=C(Cc1cccnc1)NCCSc1ccccc1F`, for which the cytotoxicity at 70.5 h was -11.1%.

On to `CCC(NCCn1cccn1)C(=O)Nc1cc(C)on1` (stereo not drawn), for which the cytotoxicity at 70.5 h was found to be 24.9%.

As to `CC(Cc1cccc(F)c1)C(=O)NS(=O)(=O)c1ccc(F)cc1` (stereo not drawn), the cytotoxicity at 70.5 h turned out to be 11.8%.

For `COc1ccc(OCc2nc3cc4c(cc3c(=O)o2)OCCCO4)cc1`, the cytotoxicity at 70.5 h was -5.23%.

As to `CSCCC(NC(N)=O)C(=O)NCc1ccc(-n2cccn2)cc1` (stereo not drawn), the cytotoxicity at 70.5 h is -6.9%.

Consider `CN(C)c1nc(N)nc(CN2CCC(c3ccccc3)CC2)n1`, for which the cytotoxicity at 70.5 h was -10.6%.

Regarding `Cc1cc(CN(CC(N)=O)CC(C)C)on1`, the cytotoxicity at 70.5 h is 18.1%.

Regarding `CC(C(=O)NC1(C#N)CCCCC1)N1CCc2c(ncn2C)C1` (stereo not drawn), the cytotoxicity at 70.5 h was -3.36%.

Turning to `COc1ccc2ccccc2c1CNCC1CCS(=O)(=O)C1` (stereo not drawn), the cytotoxicity at 70.5 h is -8.26%.
